Assay results taken from ChEMBL document CHEMBL1148233, “Design and synthesis of macrocyclic inhibitors of phosphatase cdc25B” (Bioorg Med Chem Lett, 2004).

Experiments:
[1] = target: T1, M-phase inducer phosphatase 2 (Homo sapiens, UniProt P30305); assay: Inhibitory concentration to human cell division cycle 25B (Cdc25B)
T1 sequence (P30305 whole entry): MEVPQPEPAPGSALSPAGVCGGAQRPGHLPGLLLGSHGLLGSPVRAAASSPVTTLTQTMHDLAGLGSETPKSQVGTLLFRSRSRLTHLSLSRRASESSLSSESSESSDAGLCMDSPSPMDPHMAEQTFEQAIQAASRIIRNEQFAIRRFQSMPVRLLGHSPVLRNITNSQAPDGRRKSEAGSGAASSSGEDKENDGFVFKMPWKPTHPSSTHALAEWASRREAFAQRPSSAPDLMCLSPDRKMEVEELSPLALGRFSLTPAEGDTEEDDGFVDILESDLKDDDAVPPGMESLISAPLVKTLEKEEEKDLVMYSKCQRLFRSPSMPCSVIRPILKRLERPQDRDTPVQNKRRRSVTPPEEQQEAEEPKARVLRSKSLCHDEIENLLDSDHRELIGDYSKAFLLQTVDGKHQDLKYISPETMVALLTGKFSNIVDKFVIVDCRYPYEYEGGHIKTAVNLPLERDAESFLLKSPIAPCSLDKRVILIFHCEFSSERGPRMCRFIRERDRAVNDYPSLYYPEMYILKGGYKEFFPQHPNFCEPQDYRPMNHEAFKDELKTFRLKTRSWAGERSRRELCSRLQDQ

[2] = target: T2, Tyrosine-protein phosphatase non-receptor type 1 (Homo sapiens) (UniProt P18031); assay: Selectivity against protein tyrosine phosphatase 1B
T2 sequence (whole entry): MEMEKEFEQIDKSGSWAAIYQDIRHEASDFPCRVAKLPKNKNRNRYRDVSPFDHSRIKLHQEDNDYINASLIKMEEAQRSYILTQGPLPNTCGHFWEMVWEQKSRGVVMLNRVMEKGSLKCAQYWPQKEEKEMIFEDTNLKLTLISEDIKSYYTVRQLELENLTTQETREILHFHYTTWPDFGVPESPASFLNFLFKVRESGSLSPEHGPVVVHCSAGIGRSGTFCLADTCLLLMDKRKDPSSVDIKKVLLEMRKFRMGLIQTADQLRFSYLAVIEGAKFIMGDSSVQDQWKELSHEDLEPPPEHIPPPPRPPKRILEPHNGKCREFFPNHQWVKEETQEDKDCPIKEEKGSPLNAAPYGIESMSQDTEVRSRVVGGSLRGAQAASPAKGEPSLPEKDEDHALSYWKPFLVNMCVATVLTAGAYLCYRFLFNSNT

[3] = target: Serine/threonine-protein phosphatase 2A catalytic subunit alpha isoform (Bos taurus) (UniProt P67774); assay: Selectivity against protein phosphatase 2A
Sequence of Serine/threonine-protein phosphatase 2A catalytic subunit alpha isoform (Bos taurus) (P67774 whole entry, canonical isoform): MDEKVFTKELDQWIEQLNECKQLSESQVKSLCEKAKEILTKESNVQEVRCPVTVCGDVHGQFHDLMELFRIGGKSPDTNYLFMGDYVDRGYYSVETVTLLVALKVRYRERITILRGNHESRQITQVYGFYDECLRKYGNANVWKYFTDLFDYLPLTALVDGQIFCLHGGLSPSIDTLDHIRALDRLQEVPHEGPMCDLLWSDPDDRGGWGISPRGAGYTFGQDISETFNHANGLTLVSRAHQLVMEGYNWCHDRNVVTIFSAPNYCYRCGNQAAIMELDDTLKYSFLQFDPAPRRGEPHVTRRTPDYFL

[4] = target: Receptor-type tyrosine-protein phosphatase alpha (Homo sapiens) (UniProt P18433); assay: Selectivity against protein tyrosine phosphatase alpha
Sequence of Receptor-type tyrosine-protein phosphatase alpha (Homo sapiens) (P18433 20-802 limits assumed): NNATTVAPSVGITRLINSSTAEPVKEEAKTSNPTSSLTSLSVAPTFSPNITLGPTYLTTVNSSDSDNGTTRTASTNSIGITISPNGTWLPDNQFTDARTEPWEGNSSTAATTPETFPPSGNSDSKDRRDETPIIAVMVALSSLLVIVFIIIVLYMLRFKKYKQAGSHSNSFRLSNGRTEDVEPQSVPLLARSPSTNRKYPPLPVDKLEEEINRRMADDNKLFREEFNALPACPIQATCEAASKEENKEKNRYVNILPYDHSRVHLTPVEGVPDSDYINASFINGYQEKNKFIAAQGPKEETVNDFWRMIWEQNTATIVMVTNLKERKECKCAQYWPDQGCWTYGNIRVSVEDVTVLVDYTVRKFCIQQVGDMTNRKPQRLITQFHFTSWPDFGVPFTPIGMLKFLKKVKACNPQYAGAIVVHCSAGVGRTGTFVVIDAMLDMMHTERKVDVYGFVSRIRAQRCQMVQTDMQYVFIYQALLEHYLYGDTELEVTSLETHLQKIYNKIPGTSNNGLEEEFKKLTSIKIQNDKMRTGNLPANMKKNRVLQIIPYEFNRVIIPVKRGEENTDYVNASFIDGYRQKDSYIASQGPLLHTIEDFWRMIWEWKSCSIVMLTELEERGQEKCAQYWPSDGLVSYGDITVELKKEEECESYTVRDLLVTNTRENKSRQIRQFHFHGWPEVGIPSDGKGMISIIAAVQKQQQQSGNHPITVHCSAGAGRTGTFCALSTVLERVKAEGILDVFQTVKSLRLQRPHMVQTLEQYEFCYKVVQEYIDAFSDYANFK

Row | SMILES | IC50 [1] | Selectivity [2] | Selectivity [3] | Selectivity [4]
1 | C/C1=C/CC[C@]2(C)[C@@H]([C@H](C)CCCC(C)C)CC[C@H]2c2ccc(cc2C(=O)O)CC(=O)CC1 | 8.5 µM | > 30 µM | > 30 µM | > 30 µM
2 | CC(=O)O[C@H]1CCC(C)CCC[C@]2(C)[C@@H]([C@H](C)CCCC(C)C)CC[C@H]2c2ccc(cc2C(=O)O)C1 (some centres undefined) | 7.8 µM | > 30 µM | > 30 µM | > 30 µM
3 | CC(=O)O[C@@]1(C)CCC(C)CCC[C@]2(C)[C@@H]([C@H](C)CCCC(C)C)CC[C@H]2c2ccc(cc2C)C1 (some centres undefined) | 11 µM | > 30 µM | > 30 µM | > 30 µM
4 | C/C1=C/CC[C@]2(C)[C@@H]([C@H](C)CCCC(C)C)CC[C@H]2c2ccc(cc2C=O)C[C@H](Oc2ccccc2)CC1 | 3.5 µM | > 30 µM | > 30 µM | > 30 µM
5 | C/C1=C/CC[C@]2(C)[C@@H]([C@H](C)CCCC(C)C)CC[C@H]2c2ccc(cc2C=O)C[C@@H](O)CC1 | 11 µM | > 30 µM | > 30 µM | > 30 µM
6 | CC(=O)O[C@@]1(C)CC/C(C)=C\CC[C@]2(C)[C@@H]([C@H](C)CCCC(C)C)CC[C@H]2c2ccc(cc2C(C)O)C1 (some centres undefined) | > 30 µM | > 30 µM | > 30 µM | > 30 µM
7 | CC(=O)O[C@H]1CC/C(C)=C\CC[C@]2(C)[C@@H]([C@H](C)CCCC(C)C)CC[C@H]2c2ccc(cc2C=O)C1 | 4.9 µM | > 30 µM | > 30 µM | > 30 µM
8 | COC(=O)c1cc2ccc1[C@@H]1CC[C@H]([C@H](C)CCCC(C)C)[C@@]1(C)CC/C=C(/C)CCC(=O)C2 | > 30 µM | > 30 µM | > 30 µM | > 30 µM
9 | CC(=O)CC(=O)O[C@H]1CC/C(C)=C\CC[C@]2(C)[C@@H]([C@H](C)CCCC(C)C)CC[C@H]2c2ccc(cc2C(=O)O)C1 | 7.5 µM | > 30 µM | > 30 µM | > 30 µM
10 | C/C1=C/CC[C@]2(C)[C@@H]([C@H](C)CCCC(C)C)CC[C@H]2c2ccc(cc2CO)C[C@@H](O)CC1 | > 30 µM | > 30 µM | > 30 µM | > 30 µM
11 | C/C1=C/CC[C@]2(C)[C@@H]([C@H](C)CCCC(C)C)CC[C@H]2c2ccc(cc2C(=O)O)C[C@H](Oc2ccccc2)CC1 | 7.1 µM | > 30 µM | > 30 µM | > 30 µM
12 | CC(=O)O[C@H]1CC/C(C)=C\CC[C@]2(C)[C@@H]([C@H](C)CCCC(C)C)CC[C@H]2c2ccc(cc2CO)C1 | > 30 µM | > 30 µM | > 30 µM | > 30 µM
13 | CC(=O)O[C@H]1CC/C(C)=C\CC[C@]2(C)[C@@H]([C@H](C)CCCC(C)C)CC[C@H]2c2ccc(cc2C(=O)O)C1 | 5.6 µM | > 30 µM | > 30 µM | > 30 µM
14 | C/C1=C/CC[C@]2(C)[C@@H]([C@H](C)COC(=O)c3ccccc3)CC[C@H]2c2ccc(cc2C(=O)O)C[C@@H](O)CC1 | 6.5 µM |  |  | 
15 | C=CC[C@]1(O)CC/C(C)=C\CC[C@]2(C)[C@@H]([C@H](C)CCCC(C)C)CC[C@H]2c2ccc(cc2C(=O)O)C1 | 9.3 µM | > 30 µM | > 30 µM | > 30 µM
16 | COCc1cc2ccc1[C@@H]1CC[C@H]([C@H](C)CCCC(C)C)[C@@]1(C)CC/C=C(/C)CC[C@](C)(OC(C)=O)C2 | 29 µM | > 30 µM | > 30 µM | > 30 µM
17 | C/C1=C/CC[C@]2(C)[C@@H]([C@H](C)CCCC(C)C)CC[C@H]2c2ccc(cc2C(C)O)C[C@@](C)(O)CC1 (some centres undefined) | > 30 µM | > 30 µM | > 30 µM | > 30 µM
18 | COC(=O)c1cc2ccc1[C@@H]1CC[C@H]([C@H](C)CCCC(C)C)[C@@]1(C)CC/C=C(/C)CC[C@H](OC(C)=O)C2 | > 30 µM | > 30 µM | > 30 µM | > 30 µM
19 | CC(C)CCC[C@@H](C)[C@H]1CC[C@H]2c3ccc(cc3C(=O)O)CC(O)CCC(C)CCC[C@]12C (some centres undefined) | 4.9 µM | > 30 µM | > 30 µM | > 30 µM
20 | CC(=O)c1cc2ccc1[C@@H]1CC[C@H]([C@H](C)CCCC(C)C)[C@@]1(C)CC/C=C(/C)CC[C@](C)(O)C2 | > 30 µM | > 30 µM | > 30 µM | > 30 µM
21 | CC(=O)O[C@H]1CC[C@](C)(C2CC[C@@]3(C)C(CC[C@@H]3[C@H](C)CCCC(C)C)[C@@H]2CC(=O)O)C(=O)O1 (some centres undefined) | 8.7 µM |  |  | 
22 | COC(=O)c1cc2ccc1[C@@H]1CC[C@H]([C@H](C)CCCC(C)C)[C@@]1(C)CC/C=C(/C)CC[C@H](O)C2 | > 30 µM | > 30 µM | > 30 µM | > 30 µM
23 | Cc1cc2ccc1[C@@H]1CC[C@H]([C@H](C)CCCC(C)C)[C@@]1(C)CCCC(C)CC[C@](C)(O)C2 (some centres undefined) | > 30 µM | > 30 µM | > 30 µM | > 30 µM
24 | C=CC[C@@]1(O)CC/C(C)=C\CC[C@]2(C)[C@@H]([C@H](C)CCCC(C)C)CC[C@H]2c2ccc(cc2C(=O)O)C1 | 8.4 µM | > 30 µM | > 30 µM | > 30 µM
25 | CC(C)CCC[C@@H](C)[C@H]1CC[C@H]2c3ccc(cc3C(=O)O)CC(=O)CCC(C)CCC[C@]12C (some centres undefined) | 3.4 µM | > 30 µM | 25 µM | > 30 µM
26 | CC(C)CCC[C@@H](C)[C@H]1CC[C@H]2c3ccc(cc3CO)C[C@@H](O)CCC(C)CCC[C@]12C (some centres undefined) | > 30 µM | > 30 µM | > 30 µM | > 30 µM
27 | C/C1=C/CC[C@]2(C)[C@@H]([C@H](C)CCCC(C)C)CC[C@H]2c2ccc(cc2C(=O)O)CC(O)CC1 (some centres undefined) | 7.9 µM | > 30 µM | > 30 µM | > 30 µM
28 | COC(=O)C(=O)O[C@H]1CC/C(C)=C\CC[C@]2(C)[C@@H]([C@H](C)CCCC(C)C)CC[C@H]2c2ccc(cc2C(=O)O)C1 | 11 µM | > 30 µM | > 30 µM | > 30 µM
29 | CC(=O)O[C@@]1(C)CCC(C)CCC[C@]2(C)[C@@H]([C@H](C)CCCC(C)C)CC[C@H]2c2ccc(cc2CN2CCOCC2)C1 (some centres undefined) | > 30 µM | > 30 µM | > 30 µM | > 30 µM
30 | CC(=O)O[C@@]1(C)CC/C(C)=C\CC[C@]2(C)[C@@H]([C@H](C)CCCC(C)C)CC[C@H]2c2ccc(cc2C(C)=O)C1 | > 30 µM | > 30 µM | > 30 µM | > 30 µM
